Assay results from patent publication US8377455B2, “Biosurfactant composition produced by a new Bacillus licheniforms strain, uses and products thereof” (priority 2008, dated 2013).
Read-outs that look alike come from different tables or passages of the source.

How the values were obtained:
[1] = tested on: S. aureus ATCC 25923 biofilm; assay: High-throughput susceptibility testing of CBD biofilm to biocides/metals with or without V9T14; format: cell-based, Staphylococcus aureus; settings: 8 h exposure
Method: (§1) E. coli CFT073 and E. coli O157:H7 were grown on Luria Bertani agar (LB, EMD Chemicals Inc.), P. aeruginosa PA14 and S. aureus were grown on TSB agar. Susceptibility testing of metals was performed in Minimal Salts Vitamins Glucose (MSVG) according to Teitzel and Parsek (2003), while Polycide susceptibility testing was performed in Phosphate Buffered Saline (PBS).
(§2) AgNO3 (Sigma) and CuSO4 (Sigma) were dissolved in double distilled water (ddH2O) to 150 mM and 500 mM respectively. Polycide was diluted in PBS to 25%. Solutions were sterile filtered and stored at 4° C. Serial two-fold dilutions were performed to create the challenge plate.
(§3) Biofilms were grown in the Calgary Biofilm Device (CBD) as described above. Starting from cryogenic stock, the strain was streaked out twice on TSA, and an inoculum was prepared by suspending colonies from the secondary agar subculture in 0.9% saline to match a 1.0 McFarland standard. This standard inoculum was diluted 1/30 in LB broth.
150 μL of this inoculum was transferred into each well of a 96-well plate, and the sterile peg lid of the CBD was inserted into the plate. […]
Following this period of incubation, biofilms were rinsed once with 0.9% saline (200 μL/well) to remove loosely adherent planktonic cells. Biofilm formation was evaluated by breaking off four pegs from each device after it has been rinsed. […]

[2] = tested on: P. aeruginosa PA14 biofilm; format: cell-based, Pseudomonas aeruginosa
Method: as §1, §2, §3
(§4) 150 μL of this inoculum was transferred into each well of a 96-well plate, and the sterile peg lid of the CBD was inserted into the plate. The inoculated device was then incubated at 125 rpm, for 24 h at 37° C. and 95% relative humidity. In an alternative set of experiments, biofilms were grown for 48 h before silver exposure and spent medium was changed with fresh medium after 24 h.
Following this period of incubation, biofilms were rinsed once with 0.9% saline (200 μL/well) to remove loosely adherent planktonic cells. Biofilm formation was evaluated by breaking off four pegs from each device after it has been rinsed. Biofilms were disrupted from pegs into 200 μL/well of LB supplemented with 1% Tween 20 using an ultrasonic cleaner for a period of 10 min (Aquasonic model 250T, VWR Scientific, Mississauga, Canada) as described above. The disrupted biofilms were serially diluted in 0.9% saline and plated on LB agar for viable cell counting. An initial set of quality control assays were carried out to ascertain that the strain used in this study formed equivalent biofilm on the CBD pegs as described in Harrison (2008). […]

E. coli CFT073 biofilm = format: cell-based, Escherichia coli; settings: for concentration for eradication of biofilm: 24 h exposure
Method: as §1
Extracted V9T14 biosurfactant was stored under the chemical hood providing solvent evaporation until dryness. The biosurfactant powder was homogenized using a porcelain mortar and a pestle. V9T14 was dissolved in PBS and pH was adjusted to 7.5 with 1 N NaOH. Volume was adjusted to match a final concentration of 5000 μg/mL.
as §2, §3, §4
Following this period of incubation, biofilms were rinsed once with 0.9% saline (200 μL/well) to remove loosely adherent planktonic cells. Biofilm formation was evaluated by breaking off four pegs from each device after it has been rinsed. Biofilms were disrupted from pegs into 200 μL/well of LB supplemented with 1% Tween 20 using an ultrasonic cleaner for a period of 10 min (Aquasonic model 250T, VWR Scientific, Mississauga, Canada) as described above. The disrupted biofilms were serially diluted in 0.9% saline and plated on LB agar for viable cell counting. An initial set of quality control assays were carried out to ascertain that the strain used in this study formed equivalent biofilm on the CBD pegs as described in Harrison (2008).
(§5) The challenge plate of biocides, antibiotics and biosurfactant was made in a 96-well plate. Biocides were serially two-fold diluted in PBS and V9T14 biosurfactant was added to each well at the final concentration of 5 μL/mL. Antibiotics were similarly diluted in Muller-Hinton broth, while metals were diluted in MSVG.
Biofilms that have been grown on lids of the CBD and rinsed once in 0.9% saline were inserted in the challenge plates. Following the exposure time at 37° C., biofilms were rinsed once with 0.9% saline (200 μL/well) and then placed in a microtiter “recovery” plate that contained 200 μL/well of neutralizing medium (TSB supplemented with 1% Tween 20, 2.0 g/L reduced glutathione, 1.0 g/L L-histidine, 1.0 g/L L-cysteine). The recovery plate was sonicated for a period of 10 min (Aquasonic model 250T, VWR Scientific, Mississauga, Canada). The disrupted biofilms were serially diluted in 0.9% saline and plated on the appropriate agar medium for viable cell counting. Plates were then incubated at 37° C. overnight and finally enumerated.

[3] = tested on: planktonic E. coli CFT073; format: cell-based, Escherichia coli
Method: as §5, with “MSVG. When prepared, each challenge plate had 7 sterility control, 8 growth control, 11 wells containing 5 μL/mL of V9T14 biosurfactant, 11 different concentrations of single biocide (or metals) and 11 different concentrations of biocide (or metals) associated with 5 μL/mL of V9T14 biosurfactant.” for “MSVG.”
To define MBC of biocides, recovery plates were incubated at 37° C. for 24-48 h and the adsorbance (OD650 nm) was read in a microtiter plate reader.

SMILES | maximum reduction of viable cell count with V9T14 [1] | reduction of the concentration needed to bring biofilm below detectable count when V9T14 present [1] | maximum increase of killing with V9T14 [2] | enhancement of killing activity by presence of V9T14 (E. coli CFT073 biofilm; 2 h exposure, 3.750 mM silver, 5 μg/mL V9T14) | enhancement of killing activity by presence of V9T14 (E. coli CFT073 biofilm; 8 h exposure, 0.015 mM silver (p=0.03)) | silver concentration needed with V9T14 relative to silver alone (fold less) (E. coli CFT073 biofilm; biofilm reduced below detection limit) | concentration for eradication of biofilm (E. coli CFT073 biofilm; silver alone) | concentration for eradication of biofilm (E. coli CFT073 biofilm; silver with 5 μg/mL V9T14 added) | increase of killing efficacy by V9T14 (E. coli CFT073 biofilm; solution prepared 48 h before, 4 h exposure (p=0.0007)) | concentration required to eradicate the biofilm ([2]; silver alone, 8 h exposure) | concentration required to eradicate the biofilm ([2]; silver with 5 μg/mL V9T14, 8 h exposure) | metal concentration needed with V9T14 relative to silver alone (fold less) ([3]; 5 μg/mL V9T14, 24 h) | concentration from which complete inhibition of growth was observed ([3]; silver alone, 24 h)
O=S(=O)([O-])[O-].[Cu+2] [copper, cupric sulfate] | about 2.4 log10 | about 95% | about 2.2 log10 | – | – | – | – | – | – | – | – | – | –
O=[N+]([O-])[O-].[Ag+] [silver, silver nitrate] | – | – | – | about 0.6 log10 | about 3.2 log10 | 258 fold | 7.5 mM | 0.029 mM | about 2.3 log10 | 0.469 mM | 0.117 mM | 64 fold | 7.5 mM
